Data reported in PMC5524190 (Biochemistry, 2016).

Target: BaIMPDHΔL
Format: biochemical, Bacillus anthracis
Conditions: read-out: k−7/k7, equilibrium dissociation constant of NAD+ substrate inhibition

NC(=O)c1ccc[n+]([C@@H]2O[C@H](COP(=O)([O-])OP(=O)(O)OC[C@H]3O[C@@H](n4cnc5c(N)ncnc54)[C@H](O)[C@@H]3O)[C@@H](O)[C@H]2O)c1 [NAD^+]
Kd: 5.5 mM
